Measurements as given in patent US8435587B2, “High-potency sweetener composition with long-chain primary aliphatic saturated alcohol and compositions sweetened therewith” (The Coca-Cola Company, priority 2005, dated 2013).

How the values were obtained:
[1] = Rate of dissolution of rebaudioside A forms in H2O at 25° C.; format: physicochemical
[2] = format: physicochemical
Description: A solution of rebaudioside A (>97% pure by HPLC) was prepared in double distilled water (12.5 gm in 50 mL, 25% concentration) by stirring the mixture at 40° C. for 5 minutes. An amorphous form of rebaudioside A was formed by immediately using the clear solution for spray drying with the Lab-Plant spray drier SD-04 instrument (Lab-Plant Ltd., West Yorkshire, U.K.). The solution was fed through the feed pump into the nozzle atomizer which atomized it into a spray of droplets with the help of a constant flow of nitrogen/air. […] This dry powder (11-12 g, H2O 6.74%) was discharged continuously from the drying chamber and was collected in a bottle.

[3] = Sweetness level as sucrose equivalent
[4] = Sensory evaluation of sweetness linger and sugar-like taste by expert panel; format: in vivo; set-up: key: 0: no sweetness linger; 1: very slight sweetness linger; 2: slight sweetness linger; 3: moderate sweetness linger; 4: moderately high sweetness linger; 5: high sweetness linger
Description: As used herein, the phrases “sugar-like characteristic,” “sugar-like taste,” “sugar-like sweet,” “sugary,” and “sugar-like” are synonymous. […] These characteristics are dimensions in which the taste of sucrose is different from the tastes of natural and synthetic high-potency sweeteners. Whether or not a characteristic is more sugar-like is determined by expert sensory panel assessments of sugar and compositions comprising at least one natural and/or synthetic high-potency sweetener, both with and without a sweet taste improving composition. Such assessments quantify similarities of the characteristics of compositions comprising at least one natural and/or synthetic high-potency sweetener, both with and without a sweet taste improving composition, with those comprising sugar. Suitable procedures for determining whether a composition has a more sugar-like taste are well known in the art.
In a particular embodiment, a panel of assessors is used to measure the reduction of sweetness linger. […] A decrease in score for a time point measured after the sample has cleared the mouth indicates there has been a reduction in sweetness perception. […]

| SMILES | Rate of dissolution in H2O at 25° C. ([1]; H2O, 25° C.) | Rate of dissolution in H2O at 25° C. ([1]; in words) | Solubility in water [2] [%] | Sucrose equivalent ([3]; 180 ppm rebaudioside A in diluted beverage) [% sucrose] | Sucrose equivalent ([3]; 400 ppm REBA) [g sucrose] | Sweetness linger rating ([4]; control: 400 ppm REBA in citric acid/potassium citrate composition, no additive) | Sweetness linger rating ([4]; control: 500 ppm REBA in carbon-treated water, phosphoric acid pH 2.4-2.5, no additive) |
| --- | --- | --- | --- | --- | --- | --- | --- |
| C=C1C[C@@]23CC[C@H]4[C@@](C)(CCC[C@@]4(C)C(=O)O[C@@H]4O[C@H](CO)[C@@H](O)[C@H](O)[C@H]4O)[C@@H]2CC[C@]1(O[C@@H]1O[C@H](CO)[C@@H](O)[C@H](O[C@@H]2O[C@H](CO)[C@@H](O)[C@H](O)[C@H]2O)[C@H]1O[C@@H]1O[C@H](CO)[C@@H](O)[C@H](O)[C@H]1O)C3 [Form 4, rebaudioside A] | (>35.0%/ %/5 minutes | High | > 35.0 |  |  |  |  |
| C=C1C[C@@]23CC[C@H]4[C@@](C)(CCC[C@@]4(C)C(=O)O[C@@H]4O[C@H](CO)[C@@H](O)[C@H](O)[C@H]4O)[C@@H]2CC[C@]1(O[C@@H]1O[C@H](CO)[C@@H](O)[C@H](O[C@@H]2O[C@H](CO)[C@@H](O)[C@H](O)[C@H]2O)[C@H]1O[C@@H]1O[C@H](CO)[C@@H](O)[C@H](O)[C@H]1O)C3 [Form 3, rebaudioside A] | (>30%/ %/5 minutes | High |  |  |  |  |  |
| C=C1C[C@@]23CC[C@H]4[C@@](C)(CCC[C@@]4(C)C(=O)O[C@@H]4O[C@H](CO)[C@@H](O)[C@H](O)[C@H]4O)[C@@H]2CC[C@]1(O[C@@H]1O[C@H](CO)[C@@H](O)[C@H](O[C@@H]2O[C@H](CO)[C@@H](O)[C@H](O)[C@H]2O)[C@H]1O[C@@H]1O[C@H](CO)[C@@H](O)[C@H](O)[C@H]1O)C3 [Form 2, rebaudioside A] | (<30%/ %/5 minutes | Intermediate |  |  |  |  |  |
| C=C1C[C@@]23CC[C@H]4[C@@](C)(CCC[C@@]4(C)C(=O)O[C@@H]4O[C@H](CO)[C@@H](O)[C@H](O)[C@H]4O)[C@@H]2CC[C@]1(O[C@@H]1O[C@H](CO)[C@@H](O)[C@H](O[C@@H]2O[C@H](CO)[C@@H](O)[C@H](O)[C@H]2O)[C@H]1O[C@@H]1O[C@H](CO)[C@@H](O)[C@H](O)[C@H]1O)C3 [REBA, rebaudioside A] |  |  |  | 5 | 8 | 5 | 5 |
| C=C1C[C@@]23CC[C@H]4[C@@](C)(CCC[C@@]4(C)C(=O)O[C@@H]4O[C@H](CO)[C@@H](O)[C@H](O)[C@H]4O)[C@@H]2CC[C@]1(O[C@@H]1O[C@H](CO)[C@@H](O)[C@H](O[C@@H]2O[C@H](CO)[C@@H](O)[C@H](O)[C@H]2O)[C@H]1O[C@@H]1O[C@H](CO)[C@@H](O)[C@H](O)[C@H]1O)C3 [Form 1, rebaudioside A] | (<0.2%/ %/60 minutes | Very low |  |  |  |  |  |
